Reference: patent US20220275390A1, “RUBISCO-BINDING PROTEIN MOTIFS AND USES THEREOF” (The Trustees of Princeton University, priority 2019, published 2022)
Residues, ends and D or L forms follow the SMILES beside them.

What was measured:
C. reinhardtii cells = experiment: Confocal fluorescence microscopy localization of Venus fusion proteins; type: cell-based, Chlamydomonas reinhardtii; conditions: Venus fluorescence in C. reinhardtii cells
From the text: A synthetic […] (Invitrogen) containing a 643 bp restriction fragment containing the C-terminus of Venus, followed by the sequence coding for the FLAG-tag sequence, and a sequence coding for three repetitions of the 15 C-terminal amino acids of SAGA2, was cloned into pLM005-FDX1, after restriction digestion with EcoRl and PfIMI. GenBank accession number of the empty pLM005 is KX077945.1. The plasmid pLM005-FDX1 is identical to pLM005 with the genomic sequence of FDX1 cloned in frame by Gibson Assembly (Mackinder et al., PNAS 113: 5958-5963, 2015) between residues 2698 and 3234. The terminal 85 amino acids of resultant mature fusion protein, immediately downstream of the FLAG-tag, were a 5 aa linker (GGGGS; SEQ ID NO: 87), a first copy of SAGA2 15 C-terminal aa, followed by a 10 aa linker (2X GGGGS; SEQ ID NO: 88), a second copy of SAGA2 15 last aa, another 10 aa linker (2X GGGGS; SEQ ID NO: 88), and finally a third copy of SAGA2 15 last aa. The sequence of the EcoRI-PfIMI digestion fragment (SEQ ID NO: 89) was cloned in frame into pLM005-FDX1.
Culturing and Transformation of C. reinhardtii: Culturing and transformation of C. reinhardtii for fluorescence localization of protein and imaging was performed as described in Mackinder et al. (PNAS 113: 5958-5963, 2015). […]

Rubisco = target: T1, Rubisco (Chlamydomonas reinhardtii, UniProt P00873); experiment: Surface plasmon resonance (SPR) assay of peptides binding to immobilized Rubisco
T1 construct: Rubisco was purified from Chlamydomonas reinhardtii strain cMJ030; endogenous in cells; host or cells: Chlamydomonas reinhardtii strain cMJ030 (wild type); holoenzyme purified from lysate by sucrose gradient and anion exchange
T1 sequence (P00873 46-185, other chains not shown): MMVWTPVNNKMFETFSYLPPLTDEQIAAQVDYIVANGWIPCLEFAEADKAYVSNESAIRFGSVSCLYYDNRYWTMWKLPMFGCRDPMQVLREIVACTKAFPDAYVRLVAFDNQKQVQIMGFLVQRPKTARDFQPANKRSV
Procedure: Surface Plasmon Resonance (SPR) Assay Rubisco was immobilized on a surface and peptides in solution were flowed over the surface. Surface plasmon measurements of binding of individual peptides to Rubisco were assayed (FIG. 3B).
Rubisco was purified from Chlamydomonas reinhardtii strain cMJ030. Cells were disrupted by ultrasonication in lysis buffer (10 mM MgCl2, 50 mM Bicine, 10 mM NaHCO3, 1 mM dithiothreitol (DTT) pH 8.0) supplemented with Halt Protease Inhibitor Cocktail, EDTA-Free (Fisher Scientific). The soluble lysate was fractionated by ultracentrifuge in a 10%-30% sucrose gradient in a SW 41 Ti rotor at 35,000 rpm for 20 hours at 4° C. Rubisco-containing fractions were applied to an anion exchange column (MONO Q 5/50 GL, GE Healthcare) and fractionated by using a linear salt gradient from 0 to 0.5 M NaCl (10 mM MgCl2, 50 mM Bicine, 10 mM NaHCO3, 1 mM dithiothreitol pH 8.0).
Mutagenesis of EPYC1, Mutagenesis of Rubisco, Yeast Two-hybrid, Peptide Arrays and SPR Assays To determine the importance of individual EPYC1 residues for binding to Rubisco, the impact on Rubisco binding of every possible single amino acid substitution for EPYC1 RBM 2 was determined (FIG. 8). […]
SPR Assays: The Rubisco-binding capacity for the C-terminal motif variant (W[+]xxΨ ) was determined using SPR by probing purified Rubisco with fifteen amino acid-long synthetic peptides. […]

Compound	localization pattern within the pyrenoid (C. reinhardtii cells; FIG. 15)	localization (C. reinhardtii cells; FIGS. 14B and 15)	Kd (Rubisco; KD, 24 amino acid EPYC1 fragment spanning RBM 2 binding to Rubisco, FIG. 4C) [mM]	Kd (Rubisco; Kd, individual EPYC1 RBM peptides binding to Rubisco) [mM]
RBMP2-Venus: Rubisco-Binding Membrane Protein 2 (SEQ ID NO: 2) fused to the Venus fluorescent protein	confined to the very heart of the pyrenoid	localized to the pyrenoid	–	–
CC(C)C[C@H](NC(=O)[C@H](CO)NC(=O)[C@H](CCC(=O)O)NC(=O)[C@H](CC(C)C)NC(=O)[C@H](CCC(=O)O)NC(=O)[C@H](CCC(N)=O)NC(=O)[C@H](CCCNC(=N)N)NC(=O)[C@H](Cc1c[nH]c2ccccc12)NC(=O)[C@H](CC(N)=O)NC(=O)[C@H](C)NC(=O)[C@@H]1CCCN1C(=O)[C@H](CC(C)C)NC(=O)[C@@H](NC(=O)[C@H](CO)NC(=O)[C@H](CCCNC(=N)N)NC(=O)[C@@H](NC(=O)[C@@H]1CCCN1C(=O)[C@H](CO)NC(=O)[C@@H](NC(=O)[C@H](CCCNC(=N)N)NC(=O)[C@H](CC(N)=O)NC(=O)[C@@H](N)[C@@H](C)O)C(C)C)[C@@H](C)O)C(C)C)C(=O)N[C@@H](CCCNC(=N)N)C(=O)N[C@@H](CC(N)=O)C(=O)O [EPYC1 fragment] (H-TNRVSPTRSVLPANWRQELESLRN-OH)	–	–	3.09	3
